Source: patent publication US11498929B2, “Chromenopyrimidine derivatives as phosphatidylinsitol phosphate kinase inhibitors” (Hibercell, Inc., priority 2019, dated 2022)

Columns and labels:
[1] = test system: MOLM-16; experiment: MOLM-16 EC50 assay; format: cell-based; settings: MOLM16
[2] = target: T1, PIP4K2A (Homo sapiens, UniProt P48426); experiment: Kinase Assay - PIP4K2 A (inhibition of PIP4K2 A kinase assay); format: biochemical; settings: compounds listed under IC50 bin headings
T1 construct: GST; made in house; host or cells: E. coli
T1 sequence (P48426 1-406): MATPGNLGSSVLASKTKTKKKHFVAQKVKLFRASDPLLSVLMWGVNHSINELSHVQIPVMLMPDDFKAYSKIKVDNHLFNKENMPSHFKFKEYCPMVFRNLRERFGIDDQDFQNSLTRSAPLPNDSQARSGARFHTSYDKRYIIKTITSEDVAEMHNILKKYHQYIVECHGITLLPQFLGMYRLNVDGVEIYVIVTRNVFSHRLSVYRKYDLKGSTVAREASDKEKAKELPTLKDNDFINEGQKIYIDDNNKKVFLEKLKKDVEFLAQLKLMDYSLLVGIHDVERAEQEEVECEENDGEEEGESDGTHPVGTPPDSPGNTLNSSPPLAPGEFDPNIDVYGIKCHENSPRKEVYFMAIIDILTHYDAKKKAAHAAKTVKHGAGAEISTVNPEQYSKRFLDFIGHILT
Protocol: Dilution series of the compounds were prepared in DMSO at 100 times the final assay concentration (n1=n0/3 in 10 points). The compounds were further diluted to three times the assay concentration in assay buffer (20 mM MOPS pH 7.2, 25 mM magnesium chloride, 0.005% Tween 20). 6 μL of the diluted compounds were added to a 384 well assay plate followed by 9 μL of a mix consisting of 4 nM PIP4K2A (full length protein, SignalChem) and 100 μM PI(5)P diC8 (Tebu-Bio). Enzyme and compounds were pre-incubated at room temperature for 15 minutes.
Then 3 μL of a solution containing 60 μM ATP (Promega) in assay buffer was added to the wells containing compound and enzyme and mixing was performed by pipetting several times. The reaction was incubated at room temperature for 1 h. Then 18 μL of ADP-Glo™ Reagent (Promega) was added to stop the kinase reaction and deplete the unconsumed ATP, mixing was performed by pipetting several times. The plate was incubated at room temperature for 40 minutes before addition of 36 μL of Kinase Detection Reagent (Promega) to convert ADP to ATP and introduce luciferase and luciferin to detect ATP. The reaction was incubated at room temperature for 40 minutes before the luminescence was measured in a in a Victor 3V 1420 multilabel counter (Perkin Elmer).
Percent inhibition of the compounds as compared to dimethyl sulfoxide treated control samples was calculated. Compound concentration versus percent inhibition were fitted to generate IC50 values. […]

[3] = target: T2, PIP4K2 B (GST-tagged PIP4KtypeIIB) (Homo sapiens, UniProt P78356); experiment: Kinase Assay - PIP4K2 B (inhibition of PIP4K2 B kinase assay); format: biochemical; settings: compounds listed under IC50 bin headings
T2 construct: GST; made in house; host or cells: E. coli
T2 sequence (P78356 1-416): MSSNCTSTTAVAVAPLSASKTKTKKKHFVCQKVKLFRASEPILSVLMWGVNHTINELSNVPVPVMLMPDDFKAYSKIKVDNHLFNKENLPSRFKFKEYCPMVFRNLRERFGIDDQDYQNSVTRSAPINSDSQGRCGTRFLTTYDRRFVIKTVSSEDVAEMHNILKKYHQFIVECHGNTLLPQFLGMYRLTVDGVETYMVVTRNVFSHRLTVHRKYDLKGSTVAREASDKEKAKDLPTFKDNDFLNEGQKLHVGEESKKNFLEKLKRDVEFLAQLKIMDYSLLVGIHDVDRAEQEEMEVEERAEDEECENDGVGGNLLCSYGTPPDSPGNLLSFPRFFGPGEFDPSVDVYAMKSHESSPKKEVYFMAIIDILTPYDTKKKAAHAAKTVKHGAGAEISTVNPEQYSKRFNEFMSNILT
Text: GST tagged PIP4KtypeIIA and B enzymes were overexpressed in E. Coli and purified to >80% homogeneity. Phosphatidyl inositol-5-phosphate (PI5P, Cat. #850152, Avanti Polar Lipids Inc.) was used as the lipid substrate and phosphatidyl ethanolamine (DOPE 18:1, Cat. #850725, Avanti Polar Lipids Inc.) was used as the carrier lipid for assays. Ultrapure ATP and GTP was purchased from Bellbrooke Labs. ADP Glo reagents were obtained from Promega. Transcreener FI reagent was obtained from Bellbrooke labs.
GST-tagged PIP4KtypeIIB (3.4 uL, 2.77 mg/mL) was diluted to 5 mL using HNE buffer to yield 5× enzyme stock (25 nM)
Lipid Preparation: In a 10 mL pyrex glass vial, 1 ug of PI5P and 1 ug of DOPE were suspended in 2.5 mL of HEPES buffer mix and 2.5 mL of H:E buffer. The contents were mixed and sonicated for 3 min to yield a translucent lipid stock.
Compound Preparation: Compounds were stored as 5 mM stocks in neat DMSO as room temperature in glass vials. 5 mM stocks were diluted to 2 mM and then serially diluted (3×) in neat DMSO in 96 well polypropylene plates. From the serially diluted stocks, 3 uL was delivered into 250 uL of 25% DMSO (in water) to generate 5× compound stocks. Typically, the highest compound conc. was 24 uM.
The assay volume was kept at 25 uL. To each well of the reaction plate, 10 uL of lipid stock (1:1 ratio PI5P:DOPE) was delivered. This was followed by the addition of 5 uL of compound in 25% DMSO. Then, to each well, 5 uL of 25 nM (5×) typeIIB enzyme was delivered. The contents were mixed well and incubated for 1 h at 27 C. After 1 h, reaction was initiated by adding 5 uL of 500 uM GTP and the contents were mixed well with a multi-channel pipetteman. The final concentration of the reagents are as follows: 50 mM HEPES, pH 7.3, 10 mM MgCl2, 20 mM NaCl, 0.01% v/v triton-X100, 5% DMSO, 100 uM GTP, 80 uM (2 ug) PI5P, 2 ug DOPE, and 5 nM PIP4KIIB Typically, the highest conc. of compounds was 4.8 uM and the lowest conc. was 0.
After 2 h, the reaction was quenched by adding 25 uL of transcreener FI reagent. The contents were incubated at RT for 1 h and the Fluorescence (Ex:584 Em: 623) was read using Molecular Devices Paradigm plate reader. […] The blanks were averaged and subtracted from all other wells. Using a calibration curve, RFU was converted to uM GDP (product). IC50 was calculated by plotting the residual activity (expressed as % No inhibitor control) vs. log [Inh. conc.]

| Compound | EC50 [1] [nM] | IC50 [2] [nM] | IC50 [3] [nM] |
| --- | --- | --- | --- |
| CN1CCOc2ncc(Nc3ncc4c(n3)C(C)(C)Oc3cc(N5C(=O)CCC56CC6)ccc3-4)cc21 [Compound 26, 4-[5,5-dimethyl-3-({1-methyl-1H,2H,3H-pyrido[2,3-b][1,4]oxazin-7-yl}amino)-5H-chromeno[3,4-d]pyrimidin-8-yl]-4-azaspiro[2.4]heptan-5-one] | 100 to 1000 | 1 to 10 | 1 to 10 |
| CC(=O)OC(C)(C)C(=O)N1CCOc2ncc(Nc3ncc4c(n3)C(C)(C)Oc3cc(-c5nocc5C)ccc3-4)cc21 [Compound 29, 1-(7-{[5,5-dimethyl-8-(4-methyl-1,2-oxazol-3-yl)-5H-chromeno[3,4-d]pyrimidin-3-yl]amino}-1H,2H,3H-pyrido[2,3-b][1,4]oxazin-1-yl)-2-methyl-1-oxopropan-2-yl acetate] | > 1000 | 1 to 10 | 10 to 100 |
| CC1(C)Oc2cc(N3CCCC3=O)ccc2-c2cnc(Nc3cncc(CNCCS(C)(=O)=O)c3)nc21 [Compound 31, 1-{3-[(5-{[(2-methanesulfonylethyl)amino]methyl}pyridin-3-yl)amino]-5,5-dimethyl-5H-chromeno[3,4-d]pyrimidin-8-yl}pyrrolidin-2-one] | 10 to 100 | 10 to 100 | 10 to 100 |
| CCN(CC)CCN(C)c1cncc(Nc2ncc3c(n2)C(C)(C)Oc2cc(N4CCCC4=O)ccc2-3)c1 [Compound 32, 1-{3-[(5-{[2-(diethylamino)ethyl](methyl)amino}pyridin-3-yl)amino]-5,5-dimethyl-5H-chromeno[3,4-d]pyrimidin-8-yl}pyrrolidin-2-one] | 10 to 100 | 10 to 100 | 100 to 1000 |
| CN(C)CCOc1cncc(Nc2ncc3c(n2)C(C)(C)Oc2cc(N4CCCC4=O)ccc2-3)c1 [Compound 33, 1-[3-({5-[2-(dimethylamino)ethoxy]pyridin-3-yl}amino)-5,5-dimethyl-5H-chromeno[3,4-d]pyrimidin-8-yl]pyrrolidin-2-one] | 10 to 100 | 10 to 100 | 100 to 1000 |

Other lines, results leading:

| EC50 [1] [nM] | IC50 [2] [nM] | IC50 [3] [nM] | Compound |
| --- | --- | --- | --- |
| 100 to 1000 | 100 to 1000 | > 1000 | CN1CCN(CC(=O)N(C)c2cncc(Nc3ncc4c(n3)C(C)(C)Oc3cc(N5CCCC5=O)ccc3-4)c2)CC1 [Compound 35, N-(5-{[5,5-dimethyl-8-(2-oxopyrrolidin-1-yl)-5H-chromeno[3,4-d]pyrimidin-3-yl]amino}pyridin-3-yl)-N-methyl-2-(4-methylpiperazin-1-yl)acetamide] |
| 10 to 100 | 100 to 1000 | > 1000 | CCN(CC)CCN1CCOc2ncc(Nc3ncc4c(n3)C(C)(C)Oc3cc(N5CCCC5=O)ccc3-4)cc21 [Compound 36, 1-[3-({1-[2-(diethylamino)ethyl]-1H,2H,3H-pyrido[2,3-b][1,4]oxazin-7-yl}amino)-5,5-dimethyl-5H-chromeno[3,4-d]pyrimidin-8-yl]pyrrolidin-2-one] |
